What was measured:
recombinant human NAMPT [1] = target: T1, recombinant human NAMPT (Homo sapiens, UniProt P43490); assay: NAMPT activity assay, IC50 determination (fluorometric detection of NMN derivative); details: molecular/biochemical assay, read-out: IC50 (NAMPT inhibition)
T1 construct: His tag (N); made in house; host or cells: E. coli BL21-CodonPlus (DE3)-RIL, pET21a+ vector
Source text: Using our previously established high throughput screening (HTS) platform and recombinant human NAMPT[14][15], we performed a HTS on a chemical library containing 30000 small-molecules (Chemdiv, CA, USA). Our HTS targeting NAMPT was developed based on a fluorometric method for NAMPT activity assay by measuring the fluorescence of nicotinamide mononucleotide (NMN) derivative resulting from the NAMPT enzymatic product NMN through simple chemical reactions (Fig. 1A). […] These fluorescent and non-fluorescent compounds were further studied separately.
HTS was performed using our previously reported method. 0.5 μl stock of each compound (1 mM DMSO stock) was transferred to a 96-well PCR plate for screening. In the primary screening, 5 ng NAMPT in 20 μl reaction buffer [0.4 mM phosphoribosylpyrophosphate (PRPP, Sigma), 2 mM ATP, 0.02% BSA, 2 mM DTT, 12 mM MgCl2 and 50 mM Tris-HCl (pH = 7.5)] was added into each well, the plate was incubated at 37 °C for 5 min, then 4.5 μl substrate of NAM was added to initiate the enzyme reaction, resulting in a final concentration of 2% DMSO, 2 μg/ml NAMPT, 0.2 μM NAM and 20 μM compound. After reacting at 37 °C for 15 min, the enzyme reaction was terminated by heating at 95 °C for 1 min and cooling in an ice bath. The product of NMN was detected through the following approach: after adding 10 μl 20% acetophenone in DMSO and 10 μl 2 M KOH into each well, the mixture was vortex-mixed and kept in ice bath for 2 min. […] Finally, 85 μl mixtures in each well were transferred into a flat-bottom 96-well black plate (Greiner), and the fluorescence (F) was measured using a Tecan Infinity M200 plate reader (Tecan Group Ltd.) by setting the excitation and emission wavelength to 382 nm and 445 nm respectively. The last row of each 96-well plate includes six wells of background controls and six wells of reference controls. The relative enzyme activity (Activity%) regulated by specific compound was calculated according to equation (1): […]
To determine the IC50 of inhibitors, 0.5 μl compound stocks with various concentrations were added into 96-well plate. The plate was incubated at 37 °C for 5 min after addition of 20 μl reaction buffer containing NAMPT. […] The IC50 values were determined by non-linear fitting of the concentration-dependent curves with the four-parameter IC50 logistic equation.

recombinant human NAMPT [2] = target: T1, recombinant human NAMPT; assay: HTS / fixed-concentration NAMPT activity screen (fluorometric); type: biochemical; details: 20 μM compound; analogues of the 46 non-fluorescent inhibitors
Source text: Using our previously established high throughput screening (HTS) platform and recombinant human NAMPT[14][15], we performed a HTS on a chemical library containing 30000 small-molecules (Chemdiv, CA, USA). Our HTS targeting NAMPT was developed based on a fluorometric method for NAMPT activity assay by measuring the fluorescence of nicotinamide mononucleotide (NMN) derivative resulting from the NAMPT enzymatic product NMN through simple chemical reactions (Fig. 1A). The 30000 compounds were dissolved with dimethyl sulfoxide (DMSO); most of compounds were soluble at 10 mM stock solution (94.1%), some compounds insoluble at 10 mM were soluble at 2.5 mM stock solution (4.4%), and the remaining compounds insoluble at 2.5 mM (1.5%) were diluted further during HTS experiments (Fig. 1B). To guarantee the quality of screening, S/N ratio, CV and Z’ factors were monitored throughout the screenings, and all three indices met the requirements of HTS (Fig. 1C–E). After a primary screen and a secondary screen of all compounds at 20 μM, 242 compounds were selected as the hits of NAMPT inhibitors (NAMPT activity < 40%), and the hit rate was ~0.8% (Fig. 1F). […] All these 55 compounds were not reported as NAMPT inhibitors previously. Among the 55 compounds, we noted 46 compounds were non-fluorescent and 9 compounds were fluorescent (Fig. 1F). These fluorescent and non-fluorescent compounds were further studied separately.
HTS was performed using our previously reported method. 0.5 μl stock of each compound (1 mM DMSO stock) was transferred to a 96-well PCR plate for screening. In the primary screening, 5 ng NAMPT in 20 μl reaction buffer [0.4 mM phosphoribosylpyrophosphate (PRPP, Sigma), 2 mM ATP, 0.02% BSA, 2 mM DTT, 12 mM MgCl2 and 50 mM Tris-HCl (pH = 7.5)] was added into each well, the plate was incubated at 37 °C for 5 min, then 4.5 μl substrate of NAM was added to initiate the enzyme reaction, resulting in a final concentration of 2% DMSO, 2 μg/ml NAMPT, 0.2 μM NAM and 20 μM compound. After reacting at 37 °C for 15 min, the enzyme reaction was terminated by heating at 95 °C for 1 min and cooling in an ice bath. The product of NMN was detected through the following approach: after adding 10 μl 20% acetophenone in DMSO and 10 μl 2 M KOH into each well, the mixture was vortex-mixed and kept in ice bath for 2 min. Then 45 μl 88% formic acid was added and the mixture was incubated at 37 °C for 10 min. Finally, 85 μl mixtures in each well were transferred into a flat-bottom 96-well black plate (Greiner), and the fluorescence (F) was measured using a Tecan Infinity M200 plate reader (Tecan Group Ltd.) by setting the excitation and emission wavelength to 382 nm and 445 nm respectively. The last row of each 96-well plate includes six wells of background controls and six wells of reference controls. The relative enzyme activity (Activity%) regulated by specific compound was calculated according to equation (1):
F0 was the averaged fluorescence of six background controls, representing zero activity from a simulated enzyme reaction with only NAMPT but no NAM and compound; F100% was the averaged fluorescence of six reference controls, representing 100% activity from intact enzyme reaction without compound perturbation.
Compounds with Activity% less than 40% were considered as inhibitors and subjected to a secondary screen inhibition validation, in which another background control (FC0), a simulated enzyme reaction with NAMPT and compound but no NAM, was introduced to eliminate the direct and/or indirect influence from compound. At this stage, the Activity% was calculated according to equation (2): […]

HepG2 cells = assay: Cell viability assay (CCK-8) in HepG2 cells; type: cell-based, human; details: 2 μM, 48 hours of incubation
Experimental: Cell viability was determined by our previous method[27] using the Cell Counting Kit-8 (CCK-8, Dojindo, Japan). In human hepatocellular carcinoma cell line HepG2, cells were seeded in 96-well plate and starved for over 12 h with serum-free DMEM at 60~70% confluency, then treated with compounds or vehicle for 48 h. To determine the IC50 values of inhibitors, compounds with various concentrations were added into the 96-well plate. 10 μl CCK-8 solution was added to the culture medium and incubated at 37 °C for 1 h. The absorbance at 450 nm (A450) was detected by a plate reader. Each experiment was carried out in triplicate in three replicate wells. The IC50 values were determined by non-linear fitting of the concentration-dependent curves with the four-parameter IC50 logistic equation.

T1 sequence (P43490 whole entry): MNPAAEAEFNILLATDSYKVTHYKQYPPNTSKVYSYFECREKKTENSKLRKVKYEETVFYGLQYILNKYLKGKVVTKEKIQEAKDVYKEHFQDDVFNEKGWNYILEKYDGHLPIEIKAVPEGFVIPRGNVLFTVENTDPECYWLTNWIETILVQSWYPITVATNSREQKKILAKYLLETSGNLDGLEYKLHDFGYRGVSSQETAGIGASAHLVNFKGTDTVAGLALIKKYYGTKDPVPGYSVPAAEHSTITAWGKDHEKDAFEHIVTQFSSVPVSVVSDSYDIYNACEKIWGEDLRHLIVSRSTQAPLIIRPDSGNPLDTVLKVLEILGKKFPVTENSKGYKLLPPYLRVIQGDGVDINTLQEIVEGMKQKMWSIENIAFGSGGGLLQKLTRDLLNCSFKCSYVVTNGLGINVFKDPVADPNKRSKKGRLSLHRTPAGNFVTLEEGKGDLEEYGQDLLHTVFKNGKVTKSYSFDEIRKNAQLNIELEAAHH

IC50 (recombinant human NAMPT [1])	NAMPT inhibition activity at 20 μM (recombinant human NAMPT [2])	Compound	Effect on HepG2 cell viability at 2 μM (HepG2 cells)
250 ± 40.7 nM		CC(=O)c1cccc(NC(=O)NCc2noc3ccccc23)c1 [E567-0248]	
60.2 ± 3.63 nM	Yes	O=C(Nc1ccc(OCc2nnc(-c3ccccc3)o2)cc1)c1cnccn1 [M350-0100]	significant inhibition on cell viability
59.4 ± 1.15 nM		O=C(CSc1nc2c(c(C(F)(F)F)n1)CCc1ccccc1-2)NCCCn1ccnc1 [6466-0191]	
393 ± 8.51 nM		CC(C)CCNC(=O)c1ccc(Cn2c(=O)c3cccn3c3cccnc32)cc1 [E524-1626]	
1450 ± 143 nM		CCn1c(=O)c(=O)n(Cc2ccc(C(=O)NCc3ccccc3F)cc2)c2cccnc21 [F704-0231]	
116 ± 13.1 nM		CN1C(=O)C(C)(C)c2cc(S(=O)(=O)NCc3ccc(C(=O)NCc4cccnc4)cc3)ccc21 [E589-3083]	
70.9 ± 0.74 nM		O=C(NCCc1ccccc1)c1ccc(Cn2c(=O)c3cccn3c3cccnc32)cc1 [E524-1628]	
704 ± 16.7 nM		O=C(NCc1ccc(Cl)cc1)c1ccc(CNc2c(N3CCCCC3)c(=O)c2=O)cc1 [C804-0859]	
171 ± 10.7 nM		COc1ccc(NC(=O)NCc2noc3ccccc23)cc1 [E567-0222]	significant inhibition on cell viability
1000 ± 57 nM		CCn1c(=O)c(=O)n(Cc2ccc(C(=O)NCc3cccc(Cl)c3)cc2)c2cccnc21 [F704-0076]	
171 ± 16.8 nM		Cc1cc2nc(C)c(=O)n(Cc3ccc(C(=O)NCc4ccccn4)cc3)c2cc1C [F671-0199]	
283 ± 19.2 nM		CCCc1cc(Nc2ccc(C(=O)NCc3cccnc3)cc2)n2nc(-c3cccnc3)nc2n1 [D515-0654]	significant inhibition on cell viability
517 ± 37.9 nM		CCn1c(=O)c(=O)n(Cc2ccc(C(=O)NCc3cccc(Br)c3)cc2)c2cccnc21 [F704-0251]	
62.6 ± 2.89 nM		CCc1ccc(NC(=O)NCc2noc3ccccc23)cc1 [E567-0089]	
172 ± 17.3 nM	Yes	O=C(CSC1=Nc2ccccc2N=C(c2cccs2)C1)Nc1ccc2c(c1)OCCO2 [C201-1487]	
1620 ± 57.9 nM		O=C(NCc1noc2ccccc12)NC1CCCCC1 [E567-0011]	
140 ± 7.31 nM		O=C(NCc1ccccc1)c1ccc(Cn2c(=O)c3cccn3c3cccnc32)cc1 [E524-1566]	significant inhibition on cell viability
1450 ± 51.7 nM		O=C(CSC1=Nc2ccccc2N=C(c2ccccn2)C1)Nc1ccc2c(c1)OCCO2 [C201-1928]	
85.5 ± 11.1 nM		Cc1cccc(CNC(=O)c2ccc(Cn3c(=O)c4cccn4c4cccnc43)cc2)c1 [E524-1627]	significant inhibition on cell viability

IC50 (recombinant human NAMPT [1])	NAMPT inhibition activity at 20 μM (recombinant human NAMPT [2])	Compound	Effect on HepG2 cell viability at 2 μM (HepG2 cells)
60.8 ± 2.61 nM		Cc1ccccc1-c1nnc(COc2ccc(NC(=O)c3cnccn3)cc2)o1 [M350-1052]	
411 ± 148 nM		O=C(NCCCN1CCCC1=O)c1ccc(N2CCc3ccccc32)s1 [G122-1637]	
202 ± 17.6 nM		COc1ccc(CCNC(=O)NCc2noc3ccccc23)c(OC)c1 [E567-0299]	
411 ± 28.1 nM		COc1ccc(NC(=O)NCc2noc3ccccc23)cc1Cl [E567-0014]	
118 ± 10.7 nM		COc1ccc(-c2nnc(COc3ccc(NC(=O)c4cnccn4)cc3)o2)cc1 [M350-0814]	significant inhibition on cell viability
739 ± 37.8 nM		CC(=O)c1ccc(NC(=O)Cc2noc3ccccc23)cc1 [E207-0481]	
298 ± 32.1 nM		Cc1nn(CCCC(=O)Nc2cccc(F)c2)c(=O)c2c1sc1ccccc12 [E019-0970]	
126 ± 4.23 nM		CSc1ccc(CCNC(=O)NCc2noc3ccccc23)cc1 [E567-0304]	
253 ± 17.9 nM		Cc1ccccc1CCNC(=O)c1ccc(Cn2c(=O)c3cccn3c3cccnc32)cc1 [E524-1763]	
869 ± 67.2 nM		CC1CCN(c2c(NCc3ccc(C(=O)NCc4ccc(F)cc4)cc3)c(=O)c2=O)CC1 [C852-0431]	
296 ± 7.61 nM		CCn1c(=O)c(=O)n(Cc2ccc(C(=O)NCc3ccc(Cl)cc3)cc2)c2cccnc21 [F704-0088]	
75.9 ± 3.51 nM		COc1ccc(CNC(=O)c2ccc(Cn3c(=O)c4cccn4c4cccnc43)cc2)cc1 [E524-1597]	
86.9 ± 2.77 nM		CCOC(=O)c1ccc(NC(=O)NCc2noc3ccccc23)cc1 [E567-0238]	
1280 ± 154 nM		CC1CCN(c2c(NCc3ccc(C(=O)NCCc4ccccc4)cc3)c(=O)c2=O)CC1 [C852-0409]	
416 ± 30.7 nM		O=C(Nc1cccnc1)c1ccc(-n2cnnn2)cc1 [D633-0045]	
401 ± 11.2 nM		COc1ccc(OC)c(CCNC(=O)NCc2noc3ccccc23)c1 [E567-0302]	
97.8 ± 3.13 nM		Cc1ccc(CNC(=O)c2ccc(Cn3c(=O)c4cccn4c4cccnc43)cc2)cc1 [E524-1599]	significant inhibition on cell viability
408.6 ± 1.83 nM		CC(=O)C1=C(C)Nc2ccccc2S1 [1932-0007]	

Reference: article PMC4521150, “Discovery of Novel Inhibitors and Fluorescent Probe Targeting NAMPT” (Scientific Reports, 2015)
